{"source": "patent US20090306080A1", "about": "“VETERINARY FORMULATION” (priority 2006, published 2009)", "type": "physicochemical", "conditions": "pH 7", "text": "The solubility of cyromazine in a range of organic solvents including solvents which are commonly used in topical spray-on formulations is shown in the table below."}
{"smiles": "Nc1nc(N)nc(NC2CC2)n1", "note": "[cyromazine, 2-cyclopropyl-amino-4,6-diamino-s-triazine]", "values": [{"measurement": "Solubility (g/kg) at 20° C.", "result": "1.3 (pH 7) g/kg"}]}
